Experimental data: PubChem BioAssay AID1918941 (Molecular Pharmacology Branch, DTP, NCI, 2023)

Tested on: SW 1271 complex spheroids, viability
Assay: Anticancer human tumor SW 1271 cell line growth inhibition [LSD1];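 further: spheroids exposed to agents for 7 days before luminescence read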;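 on viability, T/C: 100% = DMSO vehicle control viability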
Details: for IC50: curve of first compound; for viability, T/C: stronger effect = lower value
Outline: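 Multicellular complex spheroids of tumor cells with human endothelial cells (HUVEC) and mesenchymal stem cells; the LSD1 inhibitor iadademstat was combined with standard-of-care or investigational agents. Top concentration at or near clinical Cmax, half-log dilutions; final DMSO ≤0.25%.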

[1] = second compound 0.1 µM, first compound 0.0316 µM
[2] = second compound 0.1 µM, first compound 0.1 µM
[3] = second compound 0.316 µM, first compound 0.0316 µM
[4] = second compound 0.316 µM, first compound 0.1 µM
[5] = second compound 1 µM, first compound 0.0316 µM
[6] = second compound 1 µM, first compound 0.1 µM
[7] = second compound 3.16 µM, first compound 0.0316 µM
[8] = second compound 3.16 µM, first compound 0.1 µM
[9] = second compound 10 µM, first compound 0.0316 µM
[10] = second compound 10 µM, first compound 0.1 µM

In the case of `CC1(C)CCC(CN2CCN(c3ccc(C(=O)NS(=O)(=O)c4ccc(NCC5CCOCC5)c([N+](=O)[O-])c4)c(Oc4cnc5[nH]ccc5c4)c3)CC2)=C(c2ccc(Cl)cc2)C1` + NC1CC1c1ccc(-c2cccc(O)c2)cc1, the IC50 (second compound 0.1 µM) is reported as 2.55 µM, the IC50 (second compound 0.316 µM) is reported as 2.97 µM and the IC50 (second compound 1 µM) is reported as 2.49 µM. The IC50 (second compound 3.16 µM) was 1.91 µM, the IC50 (second compound 10 µM) was 2.1 µM and the viability, T/C [1] was 80.6%. It also gave a viability, T/C [2] of 84.3%, a viability, T/C (second compound 0.1 µM, first compound 0.316 µM) of 91.6% and a viability, T/C (second compound 0.1 µM, first compound 1 µM) of 78.3%. For the same compound, the viability, T/C (second compound 0.1 µM, first compound 3.16 µM) was 43.4%, the viability, T/C (second compound 0.1 µM, first compound 10 µM) was 1.33% and the viability, T/C [3] was 85.8%. For the same compound, the viability, T/C [4] was 95%, the viability, T/C (second compound 0.316 µM, first compound 0.316 µM) was 91.8% and the viability, T/C (second compound 0.316 µM, first compound 1 µM) was 85.5%. The viability, T/C (second compound 0.316 µM, first compound 3.16 µM) was 47.9%, the viability, T/C (second compound 0.316 µM, first compound 10 µM) was 1.12% and the viability, T/C [5] was 91.3%. The viability, T/C [6] was 78.7%, the viability, T/C (second compound 1 µM, first compound 0.316 µM) was 82.4% and the viability, T/C (second compound 1 µM, first compound 1 µM) was 80.8%. The viability, T/C (second compound 1 µM, first compound 3.16 µM) was 42%, the viability, T/C (second compound 1 µM, first compound 10 µM) was 1.39% and the viability, T/C [7] was 78.4%. For the same compound, the viability, T/C [8] was 81.7%, the viability, T/C (second compound 3.16 µM, first compound 0.316 µM) was 79% and the viability, T/C (second compound 3.16 µM, first compound 1 µM) was 66.6%. For the same compound, the viability, T/C (second compound 3.16 µM, first compound 3.16 µM) was 36.7%, the viability, T/C (second compound 3.16 µM, first compound 10 µM) was 1.44% and the viability, T/C [9] was 73.3%. It also gave a viability, T/C [10] of 65.6%, a viability, T/C (second compound 10 µM, first compound 0.316 µM) of 64.1% and a viability, T/C (second compound 10 µM, first compound 1 µM) of 69.8%. For the same compound, the viability, T/C (second compound 10 µM, first compound 3.16 µM) was 40% and the viability, T/C (second compound 10 µM, first compound 10 µM) was 0.32%.
`Cn1ncnc1C1c2n[nH]c(=O)c3cc(F)cc(c23)NC1c1ccc(F)cc1` (stereo not given) + NC1CC1c1ccc(-c2cccc(O)c2)cc1 was tested, and the IC50 (second compound 0.1 µM) was over 0.1 µM, the IC50 (second compound 0.316 µM) was over 0.1 µM and the IC50 (second compound 1 µM) was over 0.1 µM. It also gave an IC50 (second compound 3.16 µM) of over 0.1 µM, an IC50 (second compound 10 µM) of 0.0655 µM and a viability, T/C (second compound 0.1 µM, first compound 0.000316 µM) of 97.8%. The viability, T/C (second compound 0.1 µM, first compound 0.001 µM) was 80.9%, the viability, T/C (second compound 0.1 µM, first compound 0.00316 µM) was 72.3% and the viability, T/C (second compound 0.1 µM, first compound 0.01 µM) was 85.8%. The viability, T/C [1] was 71.3%, the viability, T/C [2] was 66.7% and the viability, T/C (second compound 0.316 µM, first compound 0.000316 µM) was 77.6%. It also gave a viability, T/C (second compound 0.316 µM, first compound 0.001 µM) of 72.6%, a viability, T/C (second compound 0.316 µM, first compound 0.00316 µM) of 67.5% and a viability, T/C (second compound 0.316 µM, first compound 0.01 µM) of 68.9%. It also gave a viability, T/C [3] of 71%, a viability, T/C [4] of 77% and a viability, T/C (second compound 1 µM, first compound 0.000316 µM) of 78.1%. The viability, T/C (second compound 1 µM, first compound 0.001 µM) was 75.7%, the viability, T/C (second compound 1 µM, first compound 0.00316 µM) was 72.8% and the viability, T/C (second compound 1 µM, first compound 0.01 µM) was 67.5%. For the same compound, the viability, T/C [5] was 66.1%, the viability, T/C [6] was 82.7% and the viability, T/C (second compound 3.16 µM, first compound 0.000316 µM) was 75.8%. For the same compound, the viability, T/C (second compound 3.16 µM, first compound 0.001 µM) was 85.5%, the viability, T/C (second compound 3.16 µM, first compound 0.00316 µM) was 78.9% and the viability, T/C (second compound 3.16 µM, first compound 0.01 µM) was 57.3%. It also gave a viability, T/C [7] of 59.2%, a viability, T/C [8] of 57.9% and a viability, T/C (second compound 10 µM, first compound 0.000316 µM) of 64.7%. For the same compound, the viability, T/C (second compound 10 µM, first compound 0.001 µM) was 66.7%, the viability, T/C (second compound 10 µM, first compound 0.00316 µM) was 67.2% and the viability, T/C (second compound 10 µM, first compound 0.01 µM) was 61.3%. It also gave a viability, T/C [9] of 48.6% and a viability, T/C [10] of 49.7%.
Work on `NS(=O)(=O)OCC1CC(n2ccc3c(NC4CCc5ccccc54)ncnc32)CC1O` (stereo not given) + NC1CC1c1ccc(-c2cccc(O)c2)cc1 yielded an IC50 (second compound 0.1 µM) of over 3 µM, an IC50 (second compound 0.316 µM) of over 3 µM and an IC50 (second compound 1 µM) of over 3 µM. The IC50 (second compound 3.16 µM) was over 3 µM, the IC50 (second compound 10 µM) was over 3 µM and the viability, T/C (second compound 0.1 µM, first compound 0.00949 µM) was 151%. The viability, T/C (second compound 0.1 µM, first compound 0.03 µM) was 123%, the viability, T/C (second compound 0.1 µM, first compound 0.0949 µM) was 103% and the viability, T/C (second compound 0.1 µM, first compound 0.3 µM) was 86%. It also gave a viability, T/C (second compound 0.1 µM, first compound 0.949 µM) of 85.5%, a viability, T/C (second compound 0.1 µM, first compound 3 µM) of 88.5% and a viability, T/C (second compound 0.316 µM, first compound 0.00949 µM) of 166%. It also gave a viability, T/C (second compound 0.316 µM, first compound 0.03 µM) of 112%, a viability, T/C (second compound 0.316 µM, first compound 0.0949 µM) of 94.5% and a viability, T/C (second compound 0.316 µM, first compound 0.3 µM) of 82.3%. For the same compound, the viability, T/C (second compound 0.316 µM, first compound 0.949 µM) was 82.1%, the viability, T/C (second compound 0.316 µM, first compound 3 µM) was 79.9% and the viability, T/C (second compound 1 µM, first compound 0.00949 µM) was 148%. It also gave a viability, T/C (second compound 1 µM, first compound 0.03 µM) of 110%, a viability, T/C (second compound 1 µM, first compound 0.0949 µM) of 95.9% and a viability, T/C (second compound 1 µM, first compound 0.3 µM) of 75.8%. For the same compound, the viability, T/C (second compound 1 µM, first compound 0.949 µM) was 85.9%, the viability, T/C (second compound 1 µM, first compound 3 µM) was 79% and the viability, T/C (second compound 3.16 µM, first compound 0.00949 µM) was 144%. It also gave a viability, T/C (second compound 3.16 µM, first compound 0.03 µM) of 101%, a viability, T/C (second compound 3.16 µM, first compound 0.0949 µM) of 99.9% and a viability, T/C (second compound 3.16 µM, first compound 0.3 µM) of 85.5%. It also gave a viability, T/C (second compound 3.16 µM, first compound 0.949 µM) of 75.6%, a viability, T/C (second compound 3.16 µM, first compound 3 µM) of 83.9% and a viability, T/C (second compound 10 µM, first compound 0.00949 µM) of 141%. The viability, T/C (second compound 10 µM, first compound 0.03 µM) was 116%, the viability, T/C (second compound 10 µM, first compound 0.0949 µM) was 115% and the viability, T/C (second compound 10 µM, first compound 0.3 µM) was 101%. The viability, T/C (second compound 10 µM, first compound 0.949 µM) was 87.3% and the viability, T/C (second compound 10 µM, first compound 3 µM) was 91.1%.
